Test results reported in patent publication US10357525B2, “Use of a polysaccharide mixture for treating hyperglycemia” (TRINEO BIOTECHNOLOGY CO. LTD, priority 2017, dated 2019).

Tested on: NIT-1 cells
Experiment: STZ-induced apoptosis in NIT-1 cells, cell viability by MTT assay
Assay type: cell-based, mice
Conditions: STZ 8 μM alone, FIG. 1
Experimental: Cells. Cell line used in the present study was pancreatic beta cell line NIT-1 ([…], BCRC). NIT-1 cells were cultured and maintained in Ham's F12K medium with 2 mM L-glutamine adjusted to contain 1.5 g/L sodium bicarbonate, 90%; heat-inactivated dialyzed fetal bovine serum(FBS), 10%; 100 units/mL penicillin G, 100 units/mL streptomycin (pH 7.4) and 1% non-essential amino acids(NEAA). were maintained in humidified environment comprising 5%CO2/95% air at 37° C.
NIT-1 cells were seeded into 96-well plates at a density of 1.0×10^5 cells per well and cultured in their normal growth media overnight. Next day, cells were incubated in the presence of streptozotocin (STZ) (8 μM) and the polysaccharide mixture (abbreviated as “FPA”, 100 μg/mL) of the present invention for 24 hrs, then cell viability was determined by MTT assay.
NIT-1 cells are pancreatic beta cell lines established from transgenic mice spontaneously developing beta-cell adenoma, thus, NIT-1 cells are suitable for hyperglycemia study for they are not responsive to glucose in the physiological range. […] Accordingly, the protective effect of the present polysaccharide mixture of example 1 on STZ-treated NIT-1 cells was evaluated by MTT assay. Result is illustrated in FIG. 1.

## CN(N=O)C(=O)N[C@H]1C(O)O[C@H](CO)[C@@H](O)[C@@H]1O (mixture of isomers) [STZ, streptozotocin]
  portion of NIT-1 cells died: about 60%
